Assay results reported in US10300056B2, “CGRP receptor antagonists” (Heptares Therapeutics Limited, priority 2015, dated 2019).
In brackets after ≈: the same amount, converted by molar mass. Where a name gives a salt, the structure may show the parent alone. Read-outs that look alike come from different tables or passages of the source.

Legend:
[1] = molecular target: Human CGRP receptors (consisting of CRLR and RAMP1) (Homo sapiens (Human), UniProt O60894+Q16602); test: Radioligand binding assay (3H-telcagepant displacement); conditions: Sf21 membranes, 0.5 nM 3H-telcagepant, Cheng-Prussoff
Procedure: Human Calcitonin Receptor Like Receptor (CRLR) and human RAMP1 were cloned into Invitrogen's (ThermoFisher Scientific, UK) pFastBac dual expression vector. Transposition of CRLR/RAMP1 DNA was performed using Invitrogen's Bac-to-Bac Baculovirus Expression Systems. P0 baculovirus was generated by transfecting SF9 cells with bacmid DNA using Cellfectin® II transfection reagent (ThermoFisher Scientific, UK, catalog number 10362-100). Following P0 generation P1 virus was then generated ready for large scale infection and membrane preparation. Sf21 cells were grown in expression medium ESF921 (Expression Systems, USA, catalog number 96-001-01) supplemented with 10% heat-inactivated FBS and 1% Pen/Strep and were infected at a cell density of 2.5×10^6 cells/mL and an MOI of 2. Expression was carried out over 48 h in a shaking incubator set at 27° C. The cell culture was centrifuged at 2,500 rcf for 10 min at 4° C. The pellets were resuspended in cold PBS supplemented with Roche's Complete EDTA-free protease inhibitor cocktail tablets (Roche Applied Sciences, catalog number 05056489001), 1 mM PMSF and 1 mM EDTA. The resuspended cell paste was then centrifuged at 3,273 rcf for 12 min at 4° C. The supernatant was discarded and the pellet frozen at −80° C. The cell pellet from a 4 L culture was resuspended in buffer containing 50 mM Hepes pH 7.5, 150 mM NaCl, 8 Roche EDTA-free protease inhibitor cocktail tablets and 1 mM PMSF. The suspension was left stirring at rt for 1 h and then homogenised for 90 s at 9,500 rpm using a VDI 25 (VWR, USA) homogeniser. The cells were then lysed using a Microfluidizer processor M-110L Pneumatic (Microfluidics, USA). After lysis, the mixture was homogenised for 90 s at 9,500 rpm and then centrifuged at 335 rcf for 10 min. The supernatant was then further ultra-centrifuged at 42,000 rpm for 90 min. After ultra-centrifugation, the supernatant was discarded and the pellet was resuspended in 50 mL (25 mL for each 2 L culture) of buffer containing 50 mM Hepes pH 7.5, 150 mM NaCl, 3 Roche EDTA-free protease inhibitor cocktail tablets and 1 mM PMSF. The suspension was then homogenised for 90 s at 9,500 rpm. The resulting membranes were then stored at −80° C.
Human CGRP receptors expressed (consisting of CRLR and RAMP1) in insect Sf21 cell membrane homogenates were re-suspended in the binding buffer (10 mM HEPES, pH 7.4, 5 mM MgCl2, 0.2% BSA) to a final assay concentration of 0.6 μg protein per well. Saturation isotherms were determined by the addition of various concentrations of ^3H-telcagepant (Ho et al, The Lancet, 2008, 372, 2115) (in a total reaction volume of 250 μL) for 60 min at rt. At the end of the incubation, membranes were filtered onto a unifilter, a 96-well white microplate with bonded GF/B filter pre-incubated with 0.5% PEI, with a Tomtec cell harvester and washed 5 times with distilled water. Non-specific binding (NSB) was measured in the presence of 10 nM MK-3207 hydrochloride (CAS No. 957116-20-0). Radioactivity on the filter was counted (1 min) on a microbeta counter after addition of 50 μL of scintillation fluid. For inhibition experiments, membranes were incubated with 0.5 nM ^3H-telcagepant and 10 concentrations of the inhibitory compound (0.001-10 μM). IC50 values were derived from the inhibition curve and the affinity constant (Ki) values were calculated using the Cheng-Prussoff equation (Cheng et al, Biochem. Pharmacol. 1973, 22, 3099-3108).

CGRP receptor = CGRP receptor (Homo sapiens (Human), UniProt O60894+Q16602); test: cAMP functional assay (HTRF) in SK-N-MC cells; assay type: cell-based; conditions: read-out: pkb average (converted)
Procedure: cAMP production following receptor activation was determined using the Homogeneous Time-Resolved Fluorescence (HTRF) cAMP dynamic-2 assay (Cisbio, France). The human neuroblastoma cell line SK-N-MC endogenously expressing the human CGRP receptor was seeded at a density of 12,500 cells/well in solid walled 96 well half area plates (Costar, Catalog Number 3688, Corning Life Sciences, Germany). After 16 h incubation at 37° C. media was removed and cells were incubated at 37° C. for 30 min in serum free media containing 500 μM IBMX (Tocris, Abingdon, UK, Catalog Number 2845) and increasing concentrations of test antagonist. Following this cells were challenged with an EC80 concentration of human CGRP (0.3 nM) for a further 30 min at 37° C. and then cAMP production was determined as manufacturer's instructions before plates were read on a PheraStar fluorescence plate reader (BMG LabTech, Germany). IC50 values were derived from the inhibition curve. The pIC50 values (where pIC50=−log10 IC50) were converted to a functional pKb value using a modified Cheng-Prussoff equation where Kd=agonist EC50 and L hot=agonist challenge concentration. The pKb values of certain compounds of the invention are detailed in Table 3.

[2] = molecular target: CGRP receptor ectodomain complex (Homo sapiens (Human), UniProt O60894+Q16602); test: Receptor kinetic profiling by surface plasmon resonance (Biacore T200); conditions: SPR; for receptor dissociation (off-rate) compared with olcegepant or MK-3207: in words; for CGRP t1/2: dissociation half-life, 25° C.
Procedure: Kinetic analyses were run on a Biacore T200 instrument (GE Healthcare Bio-Sciences AB, Uppsala, Sweden) at 25° C. using 0.05 mM EDTA, PBS (10 mM phosphate buffer, 2.7 mM KCl, 137 mM NaCl) pH 7.4, 0.005% v/v Surfactant P20, 5% DMSO as the running buffer. […] The chip was loaded with Ni^2+ and carboxyl groups of the dextran matrix were activated by EDC/NHS. The receptor ectodomain complex (100 nM in running buffer) was then injected and immobilised via the His-tag and amino groups. Two fold dilution series of each compound (five concentrations, in the range 25-40 nM) were injected. Blank-subtracted data were fitted to a 1:1 interaction model to obtain kinetic parameters which are expressed in Table 4 as dissociation half-life (t1/2=(ln 2/off-rate (kd)/60).

[3] = Thermodynamic solubility profiling; assay type: physicochemical; conditions: aqueous buffer, thermodynamic from solid
Procedure: A 50 mM DMSO stock solution of test compound was prepared, and from this, a working solution of 1 mM was prepared by dilution with DMSO. The UV absorbance of working solution was scanned from 220 nm to 1000 nm to identify the wavelength maxima of test compound. The 1 mM working solution was then serially diluted in DMSO to different concentrations to determine linearity/calibration curve. […] The resulting solution was then kept on a RotoSpin shaker at 50 rpm for 24 h at rt before the solution was filtered using 0.45 micron PVDF injector filters in order to remove the insoluble fraction of the compound. Subsequently, 150 uL of the filtrate is taken for quantification using a UV spectrophotometer, acquiring the optical density of standard solutions and test compound at the same wavelength maxima. From the optical density of test compound the thermodynamic solubility is calculated using the linearity/calibration curve and expressed as micromolar (μM). Solubility profiles of certain compounds of the invention are detailed in Table 7.

[4] = PBS buffer pH 7.4, 24 h at rt, read-out: Thermodynamic solubility pH 7.4
[5] = Sodium Phosphate Buffer pH 6.0, 24 h at rt, read-out: Thermodynamic solubility pH 6

Sequence of CGRP receptor ectodomain complex (Q16602 23-139): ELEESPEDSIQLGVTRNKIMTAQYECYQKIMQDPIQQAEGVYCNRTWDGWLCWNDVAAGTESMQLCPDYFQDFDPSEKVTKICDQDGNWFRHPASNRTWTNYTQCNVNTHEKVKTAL
Sequence of CGRP receptor ectodomain complex (O60894 27-118): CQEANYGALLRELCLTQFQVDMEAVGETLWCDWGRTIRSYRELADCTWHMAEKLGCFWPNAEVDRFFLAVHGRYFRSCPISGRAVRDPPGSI
Sequence of CGRP receptor (Q16602 23-461): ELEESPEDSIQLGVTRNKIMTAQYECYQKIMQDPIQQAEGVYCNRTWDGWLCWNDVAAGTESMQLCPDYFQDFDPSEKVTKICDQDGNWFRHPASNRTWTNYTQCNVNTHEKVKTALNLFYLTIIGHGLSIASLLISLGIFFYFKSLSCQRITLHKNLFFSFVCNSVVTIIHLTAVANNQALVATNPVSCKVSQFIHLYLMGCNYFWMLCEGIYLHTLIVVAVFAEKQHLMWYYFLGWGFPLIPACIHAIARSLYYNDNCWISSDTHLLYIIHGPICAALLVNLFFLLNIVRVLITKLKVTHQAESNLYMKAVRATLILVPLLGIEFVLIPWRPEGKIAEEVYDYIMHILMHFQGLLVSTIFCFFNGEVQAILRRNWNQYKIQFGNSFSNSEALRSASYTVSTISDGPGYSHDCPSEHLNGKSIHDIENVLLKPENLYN
Sequence of CGRP receptor (O60894 27-148): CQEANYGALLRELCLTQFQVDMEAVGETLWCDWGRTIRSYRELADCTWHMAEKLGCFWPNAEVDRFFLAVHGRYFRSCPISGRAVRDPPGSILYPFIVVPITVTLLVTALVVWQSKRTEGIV
Sequence of Human CGRP receptors (consisting of CRLR and RAMP1) (Q16602 23-461): as the sequence (Q16602 23-461) above
Sequence of Human CGRP receptors (consisting of CRLR and RAMP1) (O60894 27-148): as the sequence (O60894 27-148) above

| pKi average [1] | Kb (CGRP receptor) [nM] | receptor dissociation (off-rate) compared with olcegepant or MK-3207 [2] | CGRP t1/2 [2] [min] | solubility thermodynamic at 24 h [3, 4] [µM] | solubility thermodynamic at 24 h [3, 5] [µM] | Compound |
| --- | --- | --- | --- | --- | --- | --- |
| 10.0 | 0.2 | slow receptor dissociation | 78 | – | – | Cc1cc(C[C@@H](NC(=O)N2CCC(c3cc4ccccc4[nH]c3=O)CC2)C(=O)N[C@@H](CC2CCN(C(=O)OC(C)(C)C)CC2)C(=O)N2CCN(c3ccncc3)CC2)cc2cn[nH]c12 [Example 2, tert-butyl 4-{(2S)-2-{[(2R)-3-(7-methyl-1H-indazol-5-yl)-2-({[4-(2-oxo-1,2-dihydroquinolin-3-yl)piperidin-1-yl]carbonyl}amino)propanoyl]amino}-3-oxo-3-[4-(pyridin-4-yl)piperazin-1-yl]propyl}piperidine-1-carboxylate] |
| 10.1 | 0.158 | – | 4 | 509 (≈ 393 µg/mL) | 10 (≈ 7.73 µg/mL) | Cc1cc(C[C@@H](NC(=O)N2CCC(c3cc4ccccc4[nH]c3=O)CC2)C(=O)N[C@@H](CC2CCNCC2)C(=O)N2CCN(c3ccncc3)CC2)cc2cn[nH]c12 [Example 3, N-[(2R)-3-(7-methyl-1H-indazol-5-yl)-1-oxo-1-({(2S)-1-oxo-3-(piperidin-4-yl)-1-[4-(pyridin-4-yl)piperazin-1-yl]propan-2-yl}amino)propan-2-yl]-4-(2-oxo-1,2-dihydroquinolin-3-yl)piperidine-1-carboxamide] |
| 10.4 | 0.02 | slow receptor dissociation | 39 | – | – | CCCN1CCC(C[C@H](NC(=O)[C@@H](Cc2cc(C)c3[nH]ncc3c2)NC(=O)N2CCC(c3cc4ccccc4[nH]c3=O)CC2)C(=O)N2CCN(c3ccncc3)CC2)CC1 [Example 4, N-[(2R)-3-(7-methyl-1H-indazol-5-yl)-1-oxo-1-({(2S)-1-oxo-3-(1-propylpiperidin-4-yl)-1-[4-(pyridin-4-yl)piperazin-1-yl]propan-2-yl}amino)propan-2-yl]-4-(2-oxo-1,2-dihydroquinolin-3-yl)piperidine-1-carboxamide] |
| 10.0 | 0.1 | slow receptor dissociation | 20 | – | – | CCCCC(=O)N1CCC(C[C@H](NC(=O)[C@@H](Cc2cc(C)c3[nH]ncc3c2)NC(=O)N2CCC(c3cc4ccccc4[nH]c3=O)CC2)C(=O)N2CCN(c3ccncc3)CC2)CC1 [Example 6, N-[(2R)-3-(7-methyl-1H-indazol-5-yl)-1-oxo-1-({(2S)-1-oxo-3-(1-pentanoylpiperidin-4-yl)-1-[4-(pyridin-4-yl)piperazin-1-yl]propan-2-yl}amino)propan-2-yl]-4-(2-oxo-1,2-dihydroquinolin-3-yl)piperidine-1-carboxamide] |
| 10.4 | 0.0251 | slow receptor dissociation | 36 | – | – | CCN1CCC(C[C@H](NC(=O)[C@@H](Cc2cc(C)c3[nH]ncc3c2)NC(=O)N2CCC(c3cc4ccccc4[nH]c3=O)CC2)C(=O)N2CCN(c3ccncc3)CC2)CC1 [Example 7, N-[(2R)-1-({(2S)-3-(1-ethylpiperidin-4-yl)-1-oxo-1-[4-(pyridin-4-yl)piperazin-1-yl]propan-2-yl}amino)-3-(7-methyl-1H-indazol-5-yl)-1-oxopropan-2-yl]-4-(2-oxo-1,2-dihydroquinolin-3-yl)piperidine-1-carboxamide] |
| 10.1 | 0.00631 | slow receptor dissociation | 32 | – | – | O=C(N[C@@H](CC1CCNCC1)C(=O)N1CCN(c2ccncc2)CC1)[C@@H](Cc1cc(Br)c(O)c(Br)c1)NC(=O)N1CCC(N2Cc3ccccc3NC2=O)CC1 [Example 9, 3,5-dibromo-Nα-{[4-(2-oxo-1,4-dihydroquinazolin-3(2H)-yl)piperidin-1-yl]carbonyl}-N-{(2S)-1-oxo-3-(piperidin-4-yl)-1-[4-(pyridin-4-yl)piperazin-1-yl]propan-2-yl}-D-tyrosinamide] |
| – | 0.0251 | – | 101 | 1960 (≈ 1630 µg/mL) | 1650 (≈ 1370 µg/mL) | Cc1cc(C[C@@H](NC(=O)N2CCC(n3c(=O)[nH]c4ncccc43)CC2)C(=O)N[C@@H](CC2CCN(CCN(C)C)CC2)C(=O)N2CCN(c3ccncc3)CC2)cc2cn[nH]c12 [Example 12, N-[(2R)-1-({(2S)-3-{1-[2-(dimethylamino)ethyl]piperidin-4-yl}-1-oxo-1-[4-(pyridin-4-yl)piperazin-1-yl]propan-2-yl}amino)-3-(7-methyl-1H-indazol-5-yl)-1-oxopropan-2-yl]-4-(2-oxo-2,3-dihydro-1H-imidazo[4,5-b]pyridin-1-yl)piperidine-1-carboxamide] |
| 10.0 | 0.126 | – | – | – | – | Cc1cc(C[C@@H](NC(=O)N2CCC(n3c(=O)[nH]c4ncccc43)CC2)C(=O)N[C@@H](CC2CCN(C(=O)CC(=O)O)CC2)C(=O)N2CCN(c3ccncc3)CC2)cc2cn[nH]c12 [Example 13, 3-(4-{(2S)-2-{[(2R)-3-(7-methyl-1H-indazol-5-yl)-2-({[4-(2-oxo-2,3-dihydro-1H-imidazo[4,5-b]pyridin-1-yl)piperidin-1-yl]carbonyl}amino)propanoyl]amino}-3-oxo-3-[4-(pyridin-4-yl)piperazin-1-yl]propyl}piperidin-1-yl)-3-oxopropanoic Acid, ammonium Salt] |
